Columns and labels:
[1] = tested on: children and adolescents with autism spectrum disorder; assay: Aberrant Behavior Checklist-Community (ABC-C), BRIGHT study; set-up: species or system human; conditions: in vivo
Description: Another test that can be used by clinicians to measure the severity of symptoms of ASD is the Aberrant Behavior Checklist-Community test (ABC-C). The original Aberrant Behavior Checklist (ABC) was designed to assess behavioral concerns of adults within institutional settings. The original ABC was later adapted to address patients who are not institutionalized and specifically to address subjects diagnosed with ASD. The Aberrant Behavior Checklist-Community (ABC-C) is used by clinicians, doctors, and researchers to access certain behaviors in non-institutionalized patients with ASD. […]
An exploratory open-label safety, tolerability and efficacy study of Zygel™ ZYN002 transdermal gel to 37 children and adolescents with autism spectrum disorder was conducted. […] ASD was confirmed by Diagnostic and Statistical Manual of Mental Disorders, 5th edition (DSM-5) diagnostic criteria to assess the safety and efficacy of ZYN002 in treating ASD-related behaviors as measured by a variety of efficacy assessments. […]
Subjects were administered a 250 or 500 mg total daily dose, administered twice daily, of CBD in the form of ZYN002 CBD transdermal gel for 14 weeks. […] The trial evaluated multiple efficacy assessments, including the ABC-C, PRAS-ASD, Autism Parenting Stress Index, Autism Impact Measure (AIM), and Clinical Global Impression-Severity (CGI-S) and Improvement (CGI-I). […]

[2] = tested on: patients with FXS and comorbid ASD; assay: Pooled analysis of Week 12 change in ABC-C Irritability versus placebo; type: in vivo, human
Description: The data collected from the studies presented herein, and other similar studies were pooled together and analyzed. […] The subjects had moderate to severe symptoms of ASD (ADOS-2, comparison score greater than, or equal to, 5). The data presented in Table 2 is the Week 12 change in ABC-C Irritability of all patients. In previous studies (such as presented in Example 1, Table 1) the data was enriched by removing the non-completers from the analysis and only presenting data from the completers.

SMILES: C=C(C)C1CCC(C)=CC1c1c(O)cc(CCCCC)cc1O (stereo not drawn) [CBD, 2-[3-methyl-6-(1-methylethenyl)-2-cyclohexen-1-yl]-5-pentyl-1,3-benzenediol]
- improvement in irritability, PRAS score >37 compared to ≤37 [1]: twice as much improvement in irritability
- improvement in irritability, ABC-CFXS Social Avoidance score >7 compared to ≤7 ([2]; ASD subjects): twice as much improvement in irritability
- subjects showing an improvement in irritability, high social avoidance and/or anxiety scores compared to lesser scores ([2]; in vivo): about twice as many subjects

From patent US12582664B2, “Treatment of fragile x syndrome with cannabidiol” (Harmony Biosciences Management, Inc., priority 2017, dated 2026)
